Test results published in patent US6469065B1, “Nitrosated and nitrosylated α-adrenergic receptor antagonist, compositions and methods of use” (NitroMed, Inc., priority 1996, dated 2002).

Legend:
anesthetized rabbit [1] = assay: In Vivo Comparative Erectile Responses—I: intracavernosal pressure after intracavernosal injection; set-up: species or system Male New Zealand white rabbits
Protocol: (§1) Male New Zealand white rabbits weighing 2.5 kg were used as the animal model. Animals were first relaxed with an i.m. injection of 25 mg/kg ketamine prior to anesthesia with a bolus i.v. injection of 10 mg/kg Profol and maintained with i.v. infusion at 0.5 mg/kg/minutes. Ventilation of the animals was performed with 1% halothane plus 0.8 L/min O2 and 1 L/min N2O. A 22 gauge angiocatheter was placed in the femoral artery for measurement of systemic blood pressure. A dorsal incision was made in the penis and the corpora cavemosum exposed and cannulated with a 21 gauge butterfly needle to measure intracavernosal pressure.
(§2) Drugs at various concentrations were delivered intracavernosally at a volume of 150 μl through a 25 gauge needle. A 150 μl solution of a mixture of papaverine ([…]), phentolamine ([…]) and prostaglandin El (10 μg/ml) (pap/phent/PGE1) was injected in the corpora as a standard solution for comparison with the response of yohimbine, Example 1, Example 2, and the combination of yohimbine and Example 1. This pap/phent/PGE1 mixture is considered to cause a maximal erection-inducing effect.

anesthetized rabbit [2] = assay: In Vivo Comparative Erectile Responses—I: systemic blood pressure after intracavernosal injection; set-up: species or system Male New Zealand white rabbits; details: 500 μg, FIG. 5A
Protocol: as §1, §2

anesthetized rabbit [3] = assay: In vivo Comparative Erectile Responses—II: intracavernosal blood pressure (ICP) and duration; set-up: species or system White New Zealand male rabbits
Protocol: White New Zealand male rabbits (2.6-3.0 kg) were anesthetized with pentobarbital sodium (30 mg/kg). The femoral artery was exposed and indwelled with PE 50 tubing connected to a transducer for recording systemic arterial blood pressure. The ventral aspect of the penis was then exposed via surgical cut and intracavernosal blood pressure was measured using a 23 gauge needle inserted to the corpus cavernosum. The contralateral corpus cavemosum was implanted with a 23 gauge needle for the administration of drugs.
Following all surgical procedures, rabbits were allowed to rest for 10 minutes during which intracavernosal blood pressure (ICP) and mean arterial blood pressure (MABP) were continuously recorded.
Drugs at various concentrations were prepared as aqueous solution (injection volume of 200 μL). Following drug injection the tubing was flushed with 100 μL distilled water. All drug treatments were administered after stable intracavernosal and systemic blood pressures were established. If an increase in intracavernosal blood pressure (ICP) was observed, the effect was monitored throughout its entire duration.
The following parameters were obtained from each experimental recording: (i) Maximum ICP (mm Hg), (ii) Duration (minutes), defined as the time in minutes, that the increase in ICP is greater than the 50% difference between baseline and maximum response. Data were analyzed using ANOVA statistical analysis (p<0.05).

Compound: 2-Acyl-17α(3-methyl-3-(nitrosothio)butanoxy)yohimban-16α-carboxylic Acid methyl ester hydrochloride Salt [Example 2]
- duration of the erectile response (anesthetized rabbit [1]; 500 μg and 1 mg, FIG. 4): longer duration of action compared to yohimbine
- percent peak erectile response relative to pap/phent/PGE1 (anesthetized rabbit [1]; 500 μg dose): equipotent to the standard dose of pap/phent/PGE1
- percent peak erectile response relative to pap/phent/PGE1 (anesthetized rabbit [1]; 1 mg dose): at least equal to or more efficacious than the standard dose of the pap/phent/PGE1 mixture
- effect on systemic blood pressure (anesthetized rabbit [2]): did not produce any effect on systemic blood pressure

Compound: 4-[2-(Dimethylamino)ethoxy]-2-methyl-5-(methylethyl)phenyl 2-({N-[2-methyl-2-(nitrosothio)propyl]carbamoyl}methoxy)acetate, Fumaric Acid Salt [Example 9]
- doses needed to produce a robust increase of ICP (anesthetized rabbit [3]; 0.2-1.6 mg tested, FIG. 8 to FIG. 11): lower than the doses of Example 10
- duration of the erectile response (anesthetized rabbit [3]; 0.2-1.6 mg tested, FIG. 9): somewhat shorter than that of Example 10

Compound: N[C@@H](CCC(=O)N[C@@H](CSN=O)C(=O)NCC(=O)O)C(=O)O [Example 1, 4-(N-{(1R)-1-[N-(carboxymethyl)carbamoyl]-2-(nitrosothio)ethyl}carbamoyl)(2S)-2-aminobutanoic Acid]
- percent peak erectile response relative to pap/phent/PGE1 (anesthetized rabbit [1]; 500 μg dose): near maximal response
- duration of the erectile response (anesthetized rabbit [1]; 500 μg, FIG. 2): much longer duration of action

Compound: Cc1cc(OCCN(C)C)c(C(C)C)cc1OC(=O)CC(C)(C)SN=O.Cl [Example 6, 4-[2-(Dimethylamino)ethoxy]-2-methyl-5-(methylethyl)phenyl 3-methyl-3-(nitrosothio)butanoate Hydrochloride]
- percent peak erectile response relative to pap/phent/PGE1 (anesthetized rabbit [1]; 1 mg dose): more efficacious than 1 mg moxisylyte
- duration of the erectile response (anesthetized rabbit [1]; 1 mg, FIG. 7): longer duration of erectile response compared to 1 mg moxisylyte
- duration of the erectile response (anesthetized rabbit [1]; 2 mg, FIG. 7): much longer duration of action compared to 2 mg moxisylyte

Compound: Cc1cc(OCCN(C)C)c(C(C)C)cc1OC(=O)CCC(=O)OCCC1(SN=O)C2CC3CC(C2)CC1C3.O=C(O)/C=C/C(=O)O (centres unmarked) [Example 10, 4-[2-(dimethylamino)ethoxy]-2-methyl-5-(methylethyl)phenyl 2-[2-(nitrosothio)adamantan-2-yl]ethyl butane-1,4-dioate, Fumaric Acid Salt]
- peak erectile response, increase of ICP (magnitude) (anesthetized rabbit [3]; 1.07 mg, FIG. 10): moderate
- duration of the erectile response (anesthetized rabbit [3]; 1.07 mg, FIG. 11): short-lasting
- duration of increase in intracavernosal pressure (anesthetized rabbit [3]; 2.13 mg): robust effect
- magnitude of increase in intracavernosal pressure (anesthetized rabbit [3]; 2.13 mg): robust effect
- duration of increase in intracavernosal pressure (anesthetized rabbit [3]; 4.26 mg): robust effect
- duration of the erectile response (anesthetized rabbit [3]; 4.26 mg): exceeded 120 minutes
- magnitude of increase in intracavernosal pressure (anesthetized rabbit [3]; 4.26 mg): robust effect

Compound: COC(=O)[C@@H]1[C@H]2C[C@H]3c4[nH]c5ccccc5c4CCN3C[C@@H]2CC[C@@H]1O [yohimbine, reference compound]
- percent peak erectile response relative to pap/phent/PGE1 (anesthetized rabbit [1]; 150 μg and 500 μg, FIG. 1): dose dependently induced erectile response
- duration of the erectile response (anesthetized rabbit [1]; submaximal (150 μg) and maximal (500 μg) efficacy doses, FIG. 2): very short duration of action
